In the NIST ThermoML archive (doi:10.1021/je500980a):

Settings: Liquid

CCCCCCCCCC(=O)OCC [ethyl decanoate]
viscosity [mPa·s]
Settings	293.15 K	313.15 K	333.15 K	353.15 K
101.3 kPa, Falling or rolling sphere viscometry	2.34	1.59	1.16	0.888
101.3 kPa, Quartz crystal resonator	2.33	1.59	1.16	0.893
10000 kPa, Quartz crystal resonator	2.59	1.77	1.28	1
20000 kPa, Falling or rolling sphere viscometry	2.94	1.96	1.44	1.1
20000 kPa, Quartz crystal resonator	2.91	1.97	1.43	1.1
30000 kPa, Quartz crystal resonator	3.22	2.18	1.59	1.21
40000 kPa, Falling or rolling sphere viscometry	3.62	2.38	1.74	1.32
40000 kPa, Quartz crystal resonator	3.57	2.39	1.74	1.32
50000 kPa, Quartz crystal resonator	3.95	2.62	1.87	1.45
60000 kPa, Falling or rolling sphere viscometry	4.4	2.85	2.06	1.56
60000 kPa, Quartz crystal resonator	4.35	2.86	2.07	1.58
70000 kPa, Quartz crystal resonator	4.8	3.14	2.2	1.72
80000 kPa, Falling or rolling sphere viscometry	5.29	3.37	2.42	1.82
80000 kPa, Quartz crystal resonator	5.23	3.44	2.37	1.84
90000 kPa, Quartz crystal resonator	5.74	3.72	2.59	1.98
100000 kPa, Falling or rolling sphere viscometry	6.3	3.96	2.81	2.1
100000 kPa, Quartz crystal resonator	6.25	4.04	2.82	2.13
120000 kPa, Falling or rolling sphere viscometry	7.45	4.62	3.23	2.4
120000 kPa, Quartz crystal resonator	7.46	4.69	3.27	2.42
140000 kPa, Falling or rolling sphere viscometry	8.78	5.35	3.7	2.73
140000 kPa, Quartz crystal resonator	8.83	5.52	3.72	2.74
160000 kPa, Falling or rolling sphere viscometry	10.3	6.18	4.22	3.08
160000 kPa, Quartz crystal resonator	10.7	6.27	4.25	3.14
180000 kPa, Falling or rolling sphere viscometry	12.06	7.11	4.78	3.46
180000 kPa, Quartz crystal resonator	12.4	7.31	4.7	3.53
200000 kPa, Falling or rolling sphere viscometry	14.1	8.16	5.41	3.88
200000 kPa, Quartz crystal resonator	14.5	8.36	5.36	3.98

CCCCCCCCCC(=O)OC [methyl decanoate]
viscosity [mPa·s]
Settings	293.15 K	313.15 K	333.15 K	353.15 K
101.3 kPa, Falling or rolling sphere viscometry	2.15	1.46	1.07	0.825
101.3 kPa, Quartz crystal resonator	2.13	1.5	1.08	0.837
10000 kPa, Quartz crystal resonator	2.36	1.66	1.19	0.927
20000 kPa, Falling or rolling sphere viscometry	2.66	1.83	1.32	1.01
20000 kPa, Quartz crystal resonator	2.62	1.84	1.3	1.02
30000 kPa, Quartz crystal resonator	2.92	2	1.43	1.12
40000 kPa, Falling or rolling sphere viscometry	3.24	2.21	1.58	1.21
40000 kPa, Quartz crystal resonator	3.21	2.2	1.55	1.22
50000 kPa, Quartz crystal resonator	3.53	2.39	1.68	1.31
60000 kPa, Falling or rolling sphere viscometry	3.91	2.65	1.86	1.42
60000 kPa, Quartz crystal resonator	3.87	2.59	1.81	1.42
70000 kPa, Quartz crystal resonator	4.22	2.82	1.97	1.53
80000 kPa, Falling or rolling sphere viscometry	4.67	3.12	2.17	1.64
80000 kPa, Quartz crystal resonator	4.61	3.06	2.11	1.63
90000 kPa, Quartz crystal resonator	5.02	3.29	2.26	1.75
100000 kPa, Falling or rolling sphere viscometry	5.53	3.63	2.5	1.88
100000 kPa, Quartz crystal resonator	5.47	3.56	2.43	1.87
120000 kPa, Falling or rolling sphere viscometry	6.52	4.21	2.86	2.13
120000 kPa, Quartz crystal resonator	6.47	4.1	2.76	2.13
140000 kPa, Falling or rolling sphere viscometry	7.66	4.85	3.26	2.41
140000 kPa, Quartz crystal resonator	7.82	4.75	3.19	2.41
160000 kPa, Falling or rolling sphere viscometry	8.96	5.56	3.7	2.71
160000 kPa, Quartz crystal resonator	9.17	5.43	3.62	2.72
180000 kPa, Falling or rolling sphere viscometry	–	6.35	4.18	3.03
180000 kPa, Quartz crystal resonator	–	6.29	4.07	3.05
200000 kPa, Falling or rolling sphere viscometry	–	7.24	4.7	3.38
200000 kPa, Quartz crystal resonator	–	7.13	4.54	3.41
